Source: patent US8809389B2, “Substituted alkynyl phenoxy compounds as new synergists in pesticidal compositions” (Endura S.p.A., priority 2009, dated 2014)

What was measured:
[1] = test system: pollen beetle, Meligethes aeneus; experiment: Discriminating dose bioassay: α-cypermethrin in mixture with synergist; format: in vivo; settings: for % Mortality: 24 h
Protocol: Two pyrethroid resistant populations originating from two different areas in Poland ‘Rogalin'and lebork’ were collected in July 2008. A putative susceptible population, UK population, was also collected in July 2008 in Hertfordshire, UK. All populations were collected from oilseed rape contained adults only and were kept at room temperature before assays were performed.
Bioassays incorporating the compounds (Compound of Example 2 and Compound of Example 3) dissolved in acetone, were carried out using a diagnostic concentration of α-cypermethrin derived from the above full dose response bioassays in a mixture of 0.01 g L^−1 of the compounds. The concentration of α-cypermethrin used for the discriminating dose bioassays was 0.3 ppm α-cypermethrin for the two polish populations, Rogalin and Lebork and 0.03 ppm α-cypermethrin for UK population. Vials treated with the compounds only, dissolved in acetone and acetone only were used as controls. Ten to 15 replicates were used for each treatment depending on insect numbers within the population. Compounds concentrations chosen conferred no mortality in preliminary bioassays.
Treated vials including the pollen beetles were stored in constant environment facilities at 18±2° C. and 16L: 8D. All bioassays were scored at an endpoint of 24 h after exposure to the insecticide. Insects incapable of coordinated movement (after gentle touching with a pencil brush if necessary) were scored as dead.

[2] = biological target: T1, purified resistance-associated esterase (E4) (Myzus persicae, UniProt P35501); experiment: Esterase interference assay (indirect determination of esterase inhibition); format: biochemical; settings: for Esterase protection (%) after pre-incubation with compound: no esterase = 0%, uninhibited E4 = 100%
T1 construct: 5 g of aphids (stored at −20° C.) were homogenised in 0.02 M phosphate buffer pH 7.0; from tissue; host or cells: whole Myzus persicae aphids, clone 794JZ; homogenate purified over G-25 and DEAE Sepharose Fast Flow
T1 sequence (P35501 24-552): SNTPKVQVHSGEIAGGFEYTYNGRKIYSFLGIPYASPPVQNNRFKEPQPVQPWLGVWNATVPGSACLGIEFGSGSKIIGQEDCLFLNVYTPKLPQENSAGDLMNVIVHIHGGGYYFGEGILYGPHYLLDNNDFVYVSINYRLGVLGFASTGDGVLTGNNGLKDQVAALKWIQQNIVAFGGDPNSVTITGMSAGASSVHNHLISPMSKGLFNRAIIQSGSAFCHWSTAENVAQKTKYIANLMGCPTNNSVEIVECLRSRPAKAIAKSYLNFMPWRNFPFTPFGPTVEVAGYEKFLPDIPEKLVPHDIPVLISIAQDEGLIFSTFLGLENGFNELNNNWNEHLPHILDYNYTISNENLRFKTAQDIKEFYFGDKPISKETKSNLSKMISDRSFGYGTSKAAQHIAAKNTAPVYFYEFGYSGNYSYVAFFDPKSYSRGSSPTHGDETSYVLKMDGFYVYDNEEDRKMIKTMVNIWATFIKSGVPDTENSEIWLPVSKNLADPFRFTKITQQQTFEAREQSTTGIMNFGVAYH
Source text: Measuring the in vitro inhibition is not straight forward, as synergists may bind to a site other than the active site.
The esterase used was the well-characterised resistance associated esterase purified from M. persicae, E4, (aphid clone: 794JZ) as per Devonshire (1977) with some modifications(Devonshire A L, The properties of a carboxylesterase from the peach-potato aphid, Myzus persicae (Sulz.) and its role in conferring insecticide resistance. Biochem J 167: 675-683 (1977)). Briefly, 5 g of aphids (stored at −20° C.) were homogenised in 0.02 M phosphate buffer pH 7.0 and centrifuged at 20 000 g for 10 min. The supernatant was passed through a G-25 column using 0.02M Tris/HCl, pH 8.5 buffer. Unretarded fractions containing esterase activity were further chromatographed through DEAF Sepharose Fast Flow (Amersham Biosciences) and eluted with a linear 0-0.35 M NaCl gradient in 500 ml of Tris/HCl as above. Fractions containing carboxylesterase activity in the form of E4 were concentrated, desalted, and buffer exchanged to 0.02 M phosphate pH 7.0 for storage.
Interactions of the purified resistance-associated esterase (E4) with Compound of Example 2, Compound of Example 3, Compound of Example 4, Compound of Example 9 and Compound of Example 11 were performed using the ‘esterase interference assay’, as described by Khot et al., with some modifications. Devonshire A L, The properties of a carboxylesterase from the peach-potato aphid, Myzus persicae (Sulz.) and its role in conferring insecticide resistance. Biochem J 167: 675-683 (1977)). Briefly, stock solutions of novel synergists (3 mM in acetone) were pre-incubated with pure E4, to give a final concentration of 0.03 mM, for 16 h at 4° C. Aliquots (15 μl ) of E4, E4+Compound of Example 2, E4+Compound of Example 3, E4+Compound of Example 4, E4+Compound of Example 9 and E4+Compound of Example 11 were incubated for 1 h with 60 μl of serial dilutions of azamethiphos in 0.02M phosphate buffer, pH 7, in separate wells of a NUNC microplate. Aliquots (25 p1) of house fly head homogenate (source of AChE) were added to each well and incubated for 15 minutes at room temperature. E4 in acetone and buffer only served as the positive and the negative controls respectively. AChE activity was measured at 405 nm using a Tmax kinetic microplate reader (Molecular Devices, Menlo Park, Calif.). Readings were taken automatically for 10 min at 10 s intervals. The rate (mOD min^−1) was calculated by the integrated software, Softmax Pro 4.6. All treatments were performed in triplicate.
No added esterase is giving 0% esterase protection and uninhibited esterase (E4) is giving 100% protection.
The materials and procedure as stated in Example 13, paragraphs 13.1, 13.1.2, 13.1.2.1 and 13.1.2.2. have been used and the following results have been obtained: […]

CC#CCOc1cc2c(cc1CCC)OCO2 [Example 3, 5-(but-2-ynyloxy)-6-propyl-benzo[1.3]dioxole]
% Mortality ([1]; Lebork, 0.3 ppm α-cypermethrin in mixture with 0.01 g L^−1 synergist): 86.53% | Mortality ([1]; Rogalin and Lebork, 0.3 ppm α-cypermethrin in mixture with 0.01 g L^−1 synergist): around 85% | % Mortality ([1]; Rogalin, 0.3 ppm α-cypermethrin in mixture with 0.01 g L^−1 synergist): 97.06% | % Mortality ([1]; UK population, 0.03 ppm α-cypermethrin in mixture with 0.01 g L^−1 synergist): 68.78% | Mortality with the compound only ([1]; synergist only, without α-cypermethrin (data not shown)): No mortality | Reduction of esterase protection, comparison in words ([2]; E4 esterase interference assay, Examples 13 and 16): better activity than compounds 4, 7, respectively | Esterase protection (%) after pre-incubation with compound ([2]; Table 2 (Example 13), 0.03 mM compound pre-incubated with E4 16 h at 4° C.): 0.97% | Esterase protection (%) after pre-incubation with compound ([2]; second 'TABLE 3' (Example 16), procedure as Example 13): 0.98%
